We go through 28 compounds from US20260042755A1, “GPR6 INVERSE AGONISTS” (MapLight Therapeutics, Inc., priority 2022, published 2026).

The target of one test is T1, GPR6 (Homo sapiens, UniProt P46095).
T1 construct: expressed in transfected cells; host or cells: CHO cells
Briefly: GPR6 antagonist functional cAMP assay (LANCE Ultra cAMP TR-FRET, CHO cells stably expressing GPR6). Format: cell-based. An outline of the steps:
(§1)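 10,000 cells/well; KRB buffer + 0.1% BSA + 150 μM Ro 20-1724; cpd 45 min, 37 °C, 0.1% DMSO; TR-FRET cAMP, 665 nm; 4-PL fit, normalized to DMSO (0.1%) and reference (100%) → IC50.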

The target of the next test is T2, GPR3 (Homo sapiens, UniProt P46089).
T2 construct: expressed in transfected cells; host or cells: CHO cells
T2 sequence (P46089 whole entry, species assumed): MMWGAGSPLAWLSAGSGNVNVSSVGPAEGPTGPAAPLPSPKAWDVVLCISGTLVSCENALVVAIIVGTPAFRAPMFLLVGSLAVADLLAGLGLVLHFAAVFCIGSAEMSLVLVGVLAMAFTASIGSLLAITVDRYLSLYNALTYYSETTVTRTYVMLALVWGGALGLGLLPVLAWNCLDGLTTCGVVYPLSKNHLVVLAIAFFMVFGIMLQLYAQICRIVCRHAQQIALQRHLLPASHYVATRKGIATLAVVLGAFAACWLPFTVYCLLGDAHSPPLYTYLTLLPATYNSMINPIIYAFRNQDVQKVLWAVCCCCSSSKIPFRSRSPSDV
Briefly: GPR3 antagonist functional cAMP assay (LANCE Ultra cAMP TR-FRET, CHO cells stably expressing GPR3). The test is classed as cell-based. An outline of the steps: as §1

Where [1] appears, read: procedure as described in Example 24.
Where [2] appears, read: CHO cells stably expressing GPR6, cAMP assay.
The mark [3] stands for this setting: CHO cells stably expressing GPR3, cAMP assay.
The mark [4] stands for this setting: CHO cells stably expressing GPR6, cAMP assay (Example 24).
Setting [5] is: CHO cells stably expressing GPR3, cAMP assay (Example 24).

T1 sequence (P46095 whole entry): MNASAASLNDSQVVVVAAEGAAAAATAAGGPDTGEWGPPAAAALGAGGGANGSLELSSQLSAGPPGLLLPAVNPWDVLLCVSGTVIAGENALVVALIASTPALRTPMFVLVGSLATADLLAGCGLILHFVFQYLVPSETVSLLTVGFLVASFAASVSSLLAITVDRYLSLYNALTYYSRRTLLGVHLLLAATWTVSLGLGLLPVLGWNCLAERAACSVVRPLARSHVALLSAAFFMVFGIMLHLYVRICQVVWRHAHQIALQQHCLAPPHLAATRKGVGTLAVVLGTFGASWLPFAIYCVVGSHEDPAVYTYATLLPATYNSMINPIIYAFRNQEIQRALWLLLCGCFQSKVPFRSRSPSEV

For orientation: IC50 means the concentration needed to halve the response being measured. Read a low IC50 as greater potency. `CC(=O)N1CCc2nc(N3CCC(Oc4ccc(F)cc4F)CC3)c(-c3ccc(=O)[nH]c3)nc2C1` [Compound 51, 5-{6-acetyl-2-[4-(2,4-difluorophenoxy)piperidin-1-yl]-5H,6H,7H,8H-pyrido[3,4-b]pyrazin-3-yl}-1,2-dihydropyridin-2-one]: the IC50 against GPR6 (setting [1]) is 100 to 1000 nM; against GPR3 (setting [1]), 1000 to 30000 nM.

`CC(=O)N1CCc2nc(N3CCN(Cc4cn(C)cn4)CC3)c(-c3cnn(C)c3)nc2C1` [Compound 528, 1-(2-{4-[(1-methyl-4-imidazolyl)methyl]-1-piperazinyl}-3-(1-methyl-4-pyrazolyl)-5,6,7,8-tetrahydro-1,4,6-triaza-6-naphthyl)-1-ethanone]: the IC50 against GPR6 (setting [2]) and at GPR3 (setting [3]) was at least 30000 nM in each case.

`CC(=O)N1CCc2nc(N3CCN(Cc4cccc(=O)n4C)CC3)c(-c3cnn(C)c3)nc2C1` [Compound 533, 6-({4-[6-acetyl-3-(1-methyl-4-pyrazolyl)-5,6,7,8-tetrahydro-1,4,6-triaza-2-naphthyl]-1-piperazinyl}methyl)-1-methyl-2(1H)-pyridinone]: the IC50 against GPR6 (setting [2]) and against GPR3 (setting [3]) was at least 30000 nM throughout.

In the case of `CC(C)S(=O)(=O)N1CCc2nc(N3CCC(Oc4ccc(F)cc4F)CC3)c(-c3cnn(C4CCCCO4)c3)nc2C1` (centres unmarked) [Compound 176, 4-(2,4-difluorophenoxy)-1-{3-[1-(oxan-2-yl)-1H-pyrazol-4-yl]-6-(propane-2-sulfonyl)-5H,6H,7H,8H-pyrido[3,4-b]pyrazin-2-yl}piperidine], the results for the IC50 at GPR6 (setting [4]) and at GPR3 (setting [5]) were 100 to 1000 nM and 1000 to 30000 nM, respectively.

Take `CC(=O)N1CCc2nc(N3CCCC(Oc4cc(F)ccc4F)C3)c(-c3cnn(C)c3)nc2C1` (centres unmarked) [Compound 339, 1-{2-[3-(2,5-difluorophenoxy)piperidin-1-yl]-3-(1-methyl-1H-pyrazol-4-yl)-5H,6H,7H,8H-pyrido[3,4-b]pyrazin-6-yl}ethan-1-one]: the IC50 against GPR6 (procedure of Example 24) was at least 30000 nM; on GPR3 (procedure of Example 24), 100 to 1000 nM.

As for `COC(=O)[C@H]1C[C@@H]1c1cc2nc(N3CCC(Oc4ccc(F)cc4F)CC3)c(-c3cnn(C)c3)nc2cn1` (single isomer, unassigned) [Compound 733], the results for the IC50 against GPR6 (procedure of Example 24) and against GPR3 (procedure of Example 24) were 100 to 1000 nM and 1000 to 30000 nM, respectively.

Consider `CC(C)(O)C(O)c1cc2nc(N3CCN(Cc4ccc(F)cc4F)CC3)c(-c3ccc(F)c(N)n3)nc2cn1` (centres unmarked) [Compound 791, 1-[3-(6-amino-5-fluoro-2-pyridyl)-2-{4-[(2,4-difluorophenyl)methyl]-1-piperazinyl}-1,4,6-triaza-7-naphthyl]-2-methyl-1,2-propanediol], for which the IC50 on GPR6 (procedure of Example 24) and on GPR3 (procedure of Example 24) was 100 to 1000 nM throughout.

On to `CC(=O)N1CCc2nc(N3CCC(Oc4cc(F)cc(F)c4)CC3)c(-c3cnn(C)c3)nc2C1` [Compound 431, 1-{2-[4-(3,5-difluorophenoxy)piperidin-1-yl]-3-(1-methyl-1H-pyrazol-4-yl)-5H,6H,7H,8H-pyrido[3,4-b]pyrazin-6-yl}ethan-1-one], for which the IC50 at GPR6 (setting [4]) and against GPR3 (setting [5]) was 1000 to 30000 nM in each case.

Turning to `COC1C=C(c2nc3c(nc2N2CCC(Oc4ccc(F)cc4F)CC2)CCN(C(C)=O)C3)CCC1` (centres unmarked) [Compound 247, 1-{2-[4-(2,4-difluorophenoxy)piperidin-1-yl]-3-(3-methoxycyclohex-1-en-1-yl)-5H,6H,7H,8H-pyrido[3,4-b]pyrazin-6-yl}ethan-1-one], the IC50 against GPR6 (setting [4]) lay in the range of 100 to 1000 nM; on GPR3 (setting [5]), 1000 to 30000 nM.

For the compound `CC(C)(O)C(O)c1cc2nc(-c3cnn(CF)c3)c(N3CCC(Oc4ccc(F)cc4F)CC3)nc2cn1` (single isomer, unassigned) [Compound 592], the IC50 was below 100 nM on GPR6 (setting [2]) and 100 to 1000 nM against GPR3 (setting [3]).

For `CCn1cc(-c2nc3c(nc2N2CCC(Oc4cc(Cl)ccc4Cl)CC2)CCN(C(C)=O)C3)cn1` [Compound 400, 1-{2-[4-(2,5-dichlorophenoxy)piperidin-1-yl]-3-(1-ethyl-1H-pyrazol-4-yl)-5H,6H,7H,8H-pyrido[3,4-b]pyrazin-6-yl}ethan-1-one], the IC50 lay in the range of 100 to 1000 nM on GPR6 (setting [4]) and 1000 to 30000 nM against GPR3 (setting [5]).

For `CC(C)(O)C(O)c1cc2nc(N3CCN(Cc4ccc(F)cc4F)CC3)c(-c3cnn(C(F)F)c3)nc2cn1` (centres unmarked) [Compound 264, 1-{3-[1-(difluoromethyl)-1H-pyrazol-4-yl]-2-{4-[(2,4-difluorophenyl)methyl]piperazin-1-yl}pyrido[3,4-b]pyrazin-7-yl}-2-methylpropane-1,2-diol], the IC50 against GPR6 (setting [4]) was below 100 nM; at GPR3 (setting [5]), 1000 to 30000 nM.

Take `Cc1cncc2nc(-c3cnn(C)c3)c(N3CCC(Oc4ccc(F)cc4F)CC3)nc12` [Compound 480, 4-(2,4-difluorophenoxy)-1-[8-methyl-3-(1-methyl-1H-pyrazol-4-yl)pyrido[3,4-b]pyrazin-2-yl]piperidine]: the IC50 at GPR6 (setting [4]) lay in the range of 100 to 1000 nM; against GPR3 (setting [5]) it was 1000 to 30000 nM.

Take `CC(C)(O)[C@@H](O)c1cc2nc(-c3cnn(CF)c3)c(N3CCN(Cc4cc(F)ccc4F)CC3)nc2cn1` (single isomer, unassigned) [Compound 724]: the IC50 at GPR6 (procedure of Example 24) was in the range of 100 to 1000 nM; on GPR3 (procedure of Example 24), 1000 to 30000 nM.

On to `CC(=O)N1CCc2nc(N3CCC(Oc4ccc(F)cc4F)CC3)c(-c3cnn(CC(C)C)c3)nc2C1` [Compound 195, 1-{2-[4-(2,4-difluorophenoxy)piperidin-1-yl]-3-[1-(2-methylpropyl)-1H-pyrazol-4-yl]-5H,6H,7H,8H-pyrido[3,4-b]pyrazin-6-yl}ethan-1-one], for which the figures for the IC50 against GPR6 (setting [4]) and against GPR3 (setting [5]) were 100 to 1000 nM and 1000 to 30000 nM, respectively.

As for `CCn1cc(-c2nc3c(nc2N2CCN(C(=O)c4ccc(Cl)c(C)c4)CC2)CCN(C(C)=O)C3)cn1` [Compound 550, 1-{2-[4-(4-chloro-3-toluoyl)-1-piperazinyl]-3-(1-ethyl-4-pyrazolyl)-5,6,7,8-tetrahydro-1,4,6-triaza-6-naphthyl}-1-ethanone], the IC50 against GPR6 (setting [2]) and against GPR3 (setting [3]) was 1000 to 30000 nM each time.

With `CC(C)(O)C(C)(O)c1cc2nc(-c3cnn(C4CC4)c3)c(N3CCC(Oc4ccc(F)cc4F)CC3)nc2cn1` (single isomer, unassigned) [Compound 722], the values for the IC50 against GPR6 (procedure of Example 24) and on GPR3 (procedure of Example 24) were 100 to 1000 nM and 1000 to 30000 nM, respectively.

For the compound `COc1ccc(CN2CCN(c3nc4c(nc3-c3cnn(C)c3)CN(C(C)=O)CC4)CC2)cc1` [Compound 317, 1-(2-{4-[(4-methoxyphenyl)methyl]piperazin-1-yl}-3-(1-methyl-1H-pyrazol-4-yl)-5H,6H,7H,8H-pyrido[3,4-b]pyrazin-6-yl)ethan-1-one], the IC50 against GPR6 (procedure of Example 24) and against GPR3 (procedure of Example 24) was 1000 to 30000 nM throughout.

For the compound `CC(C)(O)[C@](C)(O)c1cc2nc(N3CCN(Cc4ccc(F)cc4F)CC3)c(-c3cnn(C4CC4)c3)nc2cn1` (single isomer, unassigned) [Compound 666], the IC50 against GPR6 (procedure of Example 24) lay in the range of 100 to 1000 nM; at GPR3 (procedure of Example 24) it was 1000 to 30000 nM.

Turning to `CCc1cccc(-c2nc3c(nc2N2CCC(Oc4ccc(F)cc4F)CC2)CCN(C(C)=O)C3)n1` [Compound 477, 1-{2-[4-(2,4-difluorophenoxy)piperidin-1-yl]-3-(6-ethylpyridin-2-yl)-5H,6H,7H,8H-pyrido[3,4-b]pyrazin-6-yl}ethan-1-one], the IC50 at GPR6 (setting [4]) and on GPR3 (setting [5]) was 1000 to 30000 nM throughout.

Turning to `CC(=O)N1CCc2nc(N3CCN(Cc4ccc(=O)n(C)c4)CC3)c(-c3cnn(C)c3)nc2C1` [Compound 535, 5-({4-[6-acetyl-3-(1-methyl-4-pyrazolyl)-5,6,7,8-tetrahydro-1,4,6-triaza-2-naphthyl]-1-piperazinyl}methyl)-1-methyl-2(1H)-pyridinone], the 50% inhibitory concentration (IC50) on GPR6 (setting [2]) and on GPR3 (setting [3]) was at least 30000 nM in each case.

Consider `CC(=O)N1CCc2nc(N3CC=CCC3)c(-c3cnn(C)c3)nc2C1` [Compound 422, 1-[3-(1-methyl-1H-pyrazol-4-yl)-2-(1,2,3,6-tetrahydropyridin-1-yl)-5H,6H,7H,8H-pyrido[3,4-b]pyrazin-6-yl]ethan-1-one], for which the values for the IC50 at GPR6 (setting [4]) and at GPR3 (setting [5]) were at least 30000 nM and 1000 to 30000 nM, respectively.

Turning to `COC(=O)N1CCc2nc(N3CCC(Oc4ccc(F)cc4F)CC3)c(-c3cn[nH]c3)nc2C1` [Compound 154, methyl 2-[4-(2,4-difluorophenoxy)piperidin-1-yl]-3-(1H-pyrazol-4-yl)-5H,6H,7H,8H-pyrido[3,4-b]pyrazine-6-carboxylate], the IC50 was below 100 nM against GPR6 (setting [4]) and 1000 to 30000 nM on GPR3 (setting [5]).

Regarding `CCn1cc(-c2nc3cnc(N)cc3nc2N2CCC(Oc3ccc(F)cc3F)CC2)cn1` [Compound 294, 2-[4-(2,4-difluorophenoxy)piperidin-1-yl]-3-(1-ethyl-1H-pyrazol-4-yl)pyrido[3,4-b]pyrazin-7-amine], the IC50 on GPR6 (procedure of Example 24) is below 100 nM; on GPR3 (procedure of Example 24) it was 1000 to 30000 nM.

On to `CC(C)(O)[C@@H](O)c1cc2nc(-c3cn[nH]c3)c(N3CCN(Cc4ccc(F)cc4F)CC3)nc2cn1` (single isomer, unassigned) [Compound 800], for which the IC50 against GPR6 (procedure of Example 24) was in the range of 100 to 1000 nM; against GPR3 (procedure of Example 24), 1000 to 30000 nM.

As to `CC(=O)N1CCc2nc(N3CCN(Cc4cc(Cl)ccc4Cl)CC3)c(-c3ccc(F)c(N)n3)nc2C1` [Compound 580, 1-[3-(6-amino-5-fluoro-2-pyridyl)-2-{4-[(2,5-dichlorophenyl)methyl]-1-piperazinyl}-5,6,7,8-tetrahydro-1,4,6-triaza-6-naphthyl]-1-ethanone], the IC50 is below 100 nM against GPR6 (setting [2]) and 1000 to 30000 nM against GPR3 (setting [3]).

As for `CC(C)(O)[C@@H](O)c1cc2nc(N3CCC(Oc4ccc(F)cc4F)CC3)c(-c3cnn(CF)c3)nc2cn1` (single isomer, unassigned) [Compound 597], the IC50 at GPR6 (setting [2]) is 100 to 1000 nM; on GPR3 (setting [3]) it was 1000 to 30000 nM.

As to `C[C@@H]1CN(Cc2ccc(F)cc2F)CCN1c1nc2ccncc2nc1-c1cnn(C)c1` (single isomer, unassigned) [Compound 224], the IC50 at GPR6 (setting [4]) and against GPR3 (setting [5]) was 1000 to 30000 nM in each case.
